Experiments:
solid tumor = settings: cited from earlier work
[1] = human, in vivo; cited from earlier work
clinical = format: in vivo, human; settings: for Cmax / AUC / Tmax: endothall after LB-100 2.33 mg/m^2
Protocol: The main objective was to determine the safety, tolerability, and maximum tolerated dose of LB-100 given intravenously daily for three consecutive days every 3 weeks. The secondary objectives were to document any evidence of potential anti-tumor activity and obtain pharmacokinetic data on LB-100 and a metabolite, endothall, in patients receiving LB-100 at the MTD (Quang et al., 2016).
The plasma concentrations of LB-100 and endothall were measured (Quang et al., 2016) prior to and over 4 hours after completion of the 2-hour infusion at the MTD of 2.33 mg/m2 of LB-100 on day 1 in one patient and on day 1 and 3 in two patients. […] Plasma concentrations of endothall were low throughout the infusion, being below the lower limit of detection (5 ng/mL) in one patient.

In the case of `C[C@@](O)(/C=C/[C@H]1CC=CC(=O)O1)[C@@H](C[C@@H](O)\C=C/C=C\C=C\CO)OP(=O)(O)O` [fostriecin], the “dose-limiting toxicity (DLT)” value (solid tumor; in vivo) is given as “without dose-limiting toxicity” and the disease stability (solid tumor; of 46 solid tumor patients) is given as 16 (34.8%) patients (%).

For “ipilimumab: human cytotoxic T-lymphocyte antigen 4 (CTLA-4)-blocking antibody”, the incidence of death [1] is given as 2.1% and the “patients with grade 3 or 4 adverse events” value [1] is given as “up to 15%”.

With `O=C(O)[C@@H]1[C@H](C(=O)O)[C@H]2CC[C@@H]1O2` [endothall] the Cmax (clinical; subject 001-0030, day 1, N-D = below lower limit of quantification (5 ng/ml)) was “N-D^a”, the Cmax (clinical; subject 001-0030, day 3, N-D = below lower limit of quantification (5 ng/ml)) was “N-D^a” and the AUC (clinical; subject 002-0028, day 1) was 0.022 µg·h/mL. It also gave a Cmax (clinical; subject 002-0028, day 1) of 0.0115 µg/mL, a Tmax (clinical; subject 002-0028, day 1) of 4 h and an AUC (clinical; subject 002-0028, day 3) of 0.143 µg·h/mL. For the same compound, the Cmax (clinical; subject 002-0028, day 3) was 0.0343 µg/mL, the Tmax (clinical; subject 002-0028, day 3) was 4 h and the AUC (clinical; subject 003-0029, day 1) was 0.028 µg·h/mL. The Cmax (clinical; subject 003-0029, day 1) was 0.0148 µg/mL, the Tmax (clinical; subject 003-0029, day 1) was 4 h and the “plasma concentration of endothall” value (clinical; one patient, after LB-100 2.33 mg/m2, lower limit of detection) was < 0.005 µg/mL. The “maximal concentration of endothall” value (clinical; other two patients, last sampling time point (4 h)) was 34.7 ng/mL.
